Measurements: patent US20260224571A1, “AZACYCLOALKANE COMPOUND AND PHARMACEUTICAL COMPOSITION, AND USE THEREOF” (Prime Gene Therapeutics Co., Ltd., priority 2023, published 2026)

Columns and labels:
ROCK1 = ROCK1 (Homo sapiens, UniProt Q13464); assay: ROCK1 kinase enzymatic activity (HTRF, STK2 substrate); assay type: biochemical; details: ROCK1 kinase reacted at room temperature for 20 minutes
Description: (§1) The kinase activity data was expressed by comparing the kinase activity of the test compound and that of the blank group (containing only DMSO), and the IC50 value was obtained by curve fitting using Prism software (GraphPad7.0).

ROCK2 = ROCK2 (Homo sapiens, UniProt O75116); assay: ROCK2 kinase enzymatic activity (HTRF, STK2 substrate); assay type: biochemical; details: ROCK2 kinase reacted at room temperature for 30 minutes
Sequence of ROCK2 (O75116 whole entry): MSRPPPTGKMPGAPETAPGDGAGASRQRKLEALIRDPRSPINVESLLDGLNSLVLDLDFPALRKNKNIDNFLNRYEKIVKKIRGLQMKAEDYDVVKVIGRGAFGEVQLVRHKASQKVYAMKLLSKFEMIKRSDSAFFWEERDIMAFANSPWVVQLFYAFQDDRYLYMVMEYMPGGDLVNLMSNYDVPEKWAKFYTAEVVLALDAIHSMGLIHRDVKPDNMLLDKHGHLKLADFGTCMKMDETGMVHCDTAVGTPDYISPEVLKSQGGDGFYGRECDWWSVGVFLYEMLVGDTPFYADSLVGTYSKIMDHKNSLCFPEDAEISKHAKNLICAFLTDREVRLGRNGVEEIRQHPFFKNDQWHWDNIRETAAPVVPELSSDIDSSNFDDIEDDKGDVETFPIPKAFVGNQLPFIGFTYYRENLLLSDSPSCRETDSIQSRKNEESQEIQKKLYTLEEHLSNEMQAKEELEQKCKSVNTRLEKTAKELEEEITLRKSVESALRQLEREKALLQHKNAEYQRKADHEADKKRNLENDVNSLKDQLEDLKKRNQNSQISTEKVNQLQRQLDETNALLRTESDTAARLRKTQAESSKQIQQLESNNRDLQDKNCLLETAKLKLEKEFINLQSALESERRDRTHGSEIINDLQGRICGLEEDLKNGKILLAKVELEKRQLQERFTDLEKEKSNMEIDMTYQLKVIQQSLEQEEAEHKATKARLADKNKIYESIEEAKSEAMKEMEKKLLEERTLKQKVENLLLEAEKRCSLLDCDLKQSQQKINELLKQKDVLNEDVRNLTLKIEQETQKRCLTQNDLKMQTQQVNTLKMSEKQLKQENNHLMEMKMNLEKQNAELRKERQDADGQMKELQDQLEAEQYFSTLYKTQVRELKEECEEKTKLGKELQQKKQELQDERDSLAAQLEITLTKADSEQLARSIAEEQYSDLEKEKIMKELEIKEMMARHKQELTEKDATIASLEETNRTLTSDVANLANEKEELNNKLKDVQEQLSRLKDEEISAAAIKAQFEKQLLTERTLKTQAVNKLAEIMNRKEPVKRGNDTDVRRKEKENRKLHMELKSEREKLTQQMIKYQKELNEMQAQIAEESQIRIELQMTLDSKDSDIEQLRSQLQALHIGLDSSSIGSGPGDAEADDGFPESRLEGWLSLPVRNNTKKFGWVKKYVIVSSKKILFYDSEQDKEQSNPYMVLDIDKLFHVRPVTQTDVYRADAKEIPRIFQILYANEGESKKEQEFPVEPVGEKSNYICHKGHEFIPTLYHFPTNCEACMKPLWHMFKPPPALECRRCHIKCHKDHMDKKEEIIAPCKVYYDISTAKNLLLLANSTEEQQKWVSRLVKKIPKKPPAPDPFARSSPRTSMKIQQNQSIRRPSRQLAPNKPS
Description: as §1

[1] = tested on: phosphorylation of myosin light chain T18/S19; assay: In Cell Western for phosphorylation of myosin light chain in A7r5 cells; assay type: cell-based; details: rat smooth muscle cell line A7r5, 1 hour with compound, phospho-MLC-T18/S19; read-out: cellular activity IC50
Description: The rat smooth muscle cell line A7r5 was used, and the A7r5 cell culture conditions were DMEM containing 10% FBS. Phspho-MLC-T18/S19 specific antibody and a second detection antibody were used to detect the phosphorylation level of myosin light chain by In Cell Western. Cells treated with positive compounds were used as positive controls, while the group without compounds but with compound solvents was used as negative controls. DRAQ5 stained cell nuclei were used as internal references. GraphPad Prism 7.0 software was used, and fitting was carried out by using a non-linear regression curve with varying slopes to determine the absolute IC50 value.
On the first day, A7r5 cells were resuspended in serum-free medium and seeded into 384 wells of PDL coated transparent black plates at a density of 5000 cells per well. Serum starvation culture was performed for 4 hours, and the cells were incubated with the compound in serum-free medium for 1 hour. 50 μL of 8% PFA (polyformaldehyde) was added to each well and fixed at room temperature for 1 hour. The liquid in the wells was discard and 90 μL of ice methanol was added to each well to permeabilize the cells at 4° C. for 1 hour. Then, PBST (0.1% Tween20-PBS) was added using an automatic separator to wash three times. After patting the plate for drying, 50 μL blocking solution was added to each well for sealing at room temperature for 1 hour. The phspho-MLC-T18/S19 specific antibody was diluted with the blocking solution at a ratio of 1:200. After adding 20 μL to each well, incubation was carried out overnight at 4° C. with a sealed film.
On the second day, the liquid in the wells was discarded and PBST was added using an automatic separator to wash the plate 5 times. After patting the plate for drying, the second detection antibody was diluted with blocking solution at a ratio of 1:800 and DRAQ5 at a ratio of 1:1000. After adding 20 μL to each well, incubation was carried out at room temperature for 1 hour. Then, the liquid in the wells was discarded and PBST was added using an automatic separator to wash the plate 3 times, followed by adding ddH2O to wash the plate 3 times. After patting the plate for drying, it was scanned using a LICOR Odyssey near-infrared imaging scanner.

Sequence of ROCK1 (Q13464 whole entry): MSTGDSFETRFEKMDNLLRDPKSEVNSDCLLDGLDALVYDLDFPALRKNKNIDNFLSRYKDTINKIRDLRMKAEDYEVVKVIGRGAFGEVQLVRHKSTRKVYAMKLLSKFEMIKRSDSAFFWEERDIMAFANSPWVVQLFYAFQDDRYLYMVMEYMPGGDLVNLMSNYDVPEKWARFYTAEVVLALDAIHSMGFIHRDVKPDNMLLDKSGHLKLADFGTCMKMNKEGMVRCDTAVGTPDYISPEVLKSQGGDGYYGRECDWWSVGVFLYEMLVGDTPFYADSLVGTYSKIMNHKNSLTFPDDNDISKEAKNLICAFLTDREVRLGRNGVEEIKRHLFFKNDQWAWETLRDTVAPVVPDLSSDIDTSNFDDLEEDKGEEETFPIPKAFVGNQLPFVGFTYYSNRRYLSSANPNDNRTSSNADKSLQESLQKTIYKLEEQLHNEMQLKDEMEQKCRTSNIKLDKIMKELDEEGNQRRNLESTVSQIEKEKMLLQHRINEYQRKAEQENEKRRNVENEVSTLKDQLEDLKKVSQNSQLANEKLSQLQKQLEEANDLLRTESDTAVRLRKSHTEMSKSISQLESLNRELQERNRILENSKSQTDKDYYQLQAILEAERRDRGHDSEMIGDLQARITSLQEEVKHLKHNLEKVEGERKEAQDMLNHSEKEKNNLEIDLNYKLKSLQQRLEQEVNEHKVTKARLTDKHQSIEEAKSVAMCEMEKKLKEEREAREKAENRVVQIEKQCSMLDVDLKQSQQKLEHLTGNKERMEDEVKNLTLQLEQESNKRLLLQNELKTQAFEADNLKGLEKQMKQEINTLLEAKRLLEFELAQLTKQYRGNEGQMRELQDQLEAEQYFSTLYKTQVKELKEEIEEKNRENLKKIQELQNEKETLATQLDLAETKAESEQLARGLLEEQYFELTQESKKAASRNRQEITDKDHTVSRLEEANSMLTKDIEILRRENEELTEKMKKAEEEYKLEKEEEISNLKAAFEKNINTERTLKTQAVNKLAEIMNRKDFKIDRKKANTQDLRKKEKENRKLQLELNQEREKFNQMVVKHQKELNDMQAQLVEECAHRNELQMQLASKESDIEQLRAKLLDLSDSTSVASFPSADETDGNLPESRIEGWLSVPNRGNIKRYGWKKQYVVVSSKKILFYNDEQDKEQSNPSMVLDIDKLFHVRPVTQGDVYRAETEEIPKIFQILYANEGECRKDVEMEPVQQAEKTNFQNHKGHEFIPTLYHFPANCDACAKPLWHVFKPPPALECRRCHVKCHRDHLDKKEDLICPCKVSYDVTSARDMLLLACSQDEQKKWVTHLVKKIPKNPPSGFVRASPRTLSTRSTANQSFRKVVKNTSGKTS

Row | SMILES | IC50 (ROCK1) | IC50 (ROCK2) | IC50 [1]
1 | N#CCC1(n2cc(-c3ncnc4[nH]ccc34)c(N)n2)CN(S(=O)(=O)C(F)(F)F)C1 [Example 2, 2-(3-(3-amino-4-(7H-pyrrolo[2,3-d]pyrimidin-4-yl)-1H-pyrazol-1-yl)-1-((trifluoromethyl)sulfonyl)azetidine-3-yl)acetonitrile] | < 5 nM | < 5 nM | 11 nM
2 | CS(=O)(=O)N1CCC(CC#N)(n2cc(-c3ncnc4[nH]ccc34)c(N)n2)C1 (centres unmarked) [Example 3, 2-(3-(3-amino-4-(7H-pyrrolo[2,3-d]pyrimidin-4-yl)-1H-pyrazol-1-yl)-1-(methylsulfonyl)pyrrolidin-3-yl)acetonitrile] | < 5 nM | < 5 nM | 178 nM
3 | CC(=O)Nc1nn(C2(CC#N)CN(S(=O)(=O)C(F)(F)F)C2)cc1-c1ncnc2[nH]ccc12 [Example 5] | < 5 nM | < 5 nM | 951 nM
4 | CCNc1nn(C2(CC#N)CN(S(=O)(=O)C(F)(F)F)C2)cc1-c1ncnc2[nH]ccc12 [Example 6, 2-(3-(3-(ethylamino)-4-(7H-pyrrolo[2,3-d]pyrimidin-4-yl)-1H-pyrazol-1-yl)-1-((trifluoromethyl)sulfonyl)azetidine-3-yl)acetonitrile] | < 5 nM | < 5 nM | 181 nM
5 | CN(C)CCNc1nn(C2(CC#N)CN(S(=O)(=O)C(F)(F)F)C2)cc1-c1ncnc2[nH]ccc12 [Example 7, 2-(3-(3-((2-(dimethylamino)ethyl)amino)-4-(7H-pyrrolo[2,3-d]pyrimidin-4-yl)-1H-pyrazol-1-yl)-1-((trifluoromethyl)sulfonyl)azetidine-3-yl)acetonitrile] | < 5 nM | < 5 nM | 132 nM
6 | N#CCNC(=O)N1CC(CC#N)(n2cc(-c3ncnc4[nH]ccc34)c(N)n2)C1 [Example 18, 3-(3-amino-4-(7H-pyrrolo[2,3-d]pyrimidin-4-yl)-1H-pyrazol-1-yl)-N,3-bis(cyanomethyl)azetidine-1-formamide] | < 5 nM | < 5 nM | 4110 nM
7 | COc1nsc(NC(=O)N2CC(CC#N)(n3cc(-c4ncnc5[nH]ccc45)c(N)n3)C2)n1 [Example 19, 3-(3-amino-4-(7H-pyrrolo[2,3-d]pyrimidin-4-yl)-1H-pyrazol-1-yl)-3-(cyanomethyl)-N-(3-methoxy-1,2,4-thiadiazol-5-yl)azetidine-1-formamide] | < 10 nM | < 10 nM | > 10000 nM
8 | N#CCC1(n2cc(-c3ncnc4[nH]ccc34)c(N)n2)CN(C(=O)[C@H]2C[C@@H]2F)C1 [Example 31, 2-(3-(3-amino-4-(7H-pyrrolo[2,3-d]pyrimidin-4-yl)-1H-pyrazol-1-yl)-1-((1R, 2S)-2-fluorocyclopropane-1-carbonyl)azetidine-3-yl)acetonitrile] | < 5 nM | < 5 nM | 381 nM
9 | N#CCC1(n2cc(-c3ncnc4[nH]ccc34)c(N)n2)CN(C(=O)[C@@H]2CC2(F)F)C1 [Example 34, (S)-2-(3-(3-amino-4-(7H-pyrrolo[2,3-d]pyrimidin-4-yl)-1H-pyrazol-1-yl)-1-(2,2-difluorocyclopropane-1-carbonyl)azetidine-3-yl)acetonitrile] | < 10 nM | < 10 nM | 551 nM
10 | N#CCC1(n2cc(-c3ncnc4[nH]ccc34)c(N)n2)CN(S(=O)(=O)NCC(F)(F)F)C1 [Example 40, 3-(3-amino-4-(7H-pyrrolo[2,3-d]pyrimidin-4-yl)-1H-pyrazol-1-yl)-3-(cyanomethyl)-N-(2,2,2-trifluoroethyl)azetidine-1l-sulfonamide] | < 10 nM | < 10 nM | 1570 nM
11 | CS(=O)(=O)N1CC(CC#N)(n2cc(-c3cc(NC4CCOCC4)ncn3)c(N)n2)C1 [Example 75, 2-(3-(3-amino-4-(6-((tetrahydro-2H-pyran-4-yl)amino)pyrimidin-4-yl)-1H-pyrazol-1-yl)-1-(methylsulfonyl)azetidine-3-yl)acetonitrile] | > 100 nM | > 100 nM | –
12 | Cc1ccc(C(=O)OCc2ccc([C@@H](CN)C(=O)Nc3ccc4cnccc4c3)cc2)c(C)c1 [Netarsudil, reference compound] | – | – | 288 nM

Other lines, results leading:

Row | IC50 (ROCK1) | IC50 (ROCK2) | IC50 [1] | SMILES
13 | < 10 nM | < 10 nM | 5010 nM | N#CCC1(n2cc(-c3ncnc4[nH]ccc34)c(N)n2)CN(S(=O)(=O)CC(F)(F)F)C1 [Example 1, 2-(3-(3-amino-4-(7-H-pyrrolo[2,3-d]pyrimidin-4-yl)-1H-pyrazol-1-yl)-1-((2,2,2-trifluoroethyl)sulfonyl)azetidine-3-yl)acetonitrile]
14 | < 5 nM | < 5 nM | 152 nM | CS(=O)(=O)CS(=O)(=O)N1CC(CC#N)(n2cc(-c3ncnc4[nH]ccc34)c(N)n2)C1 [Example 8]
15 | < 50 nM | < 50 nM | 1590 nM | CN=S(C)(=O)N1CC(CC#N)(n2cc(-c3ncnc4[nH]ccc34)c(N)n2)C1 (centres unmarked) [Example 37, 2-(3-(3-amino-4-(7H-pyrrolo[2,3-d]pyrimidin-4-yl)-1H-pyrazol-1-yl)-1-(N,S-dimethylsulfonylimino)azetidine-3-yl)acetonitrile]
16 | < 5 nM | < 5 nM | 3130 nM | CCS(=N)(=O)N1CC(CC#N)(n2cc(-c3ncnc4[nH]ccc34)c(N)n2)C1 (centres unmarked) [Example 38, 2-(3-(3-amino-4-(7H-pyrrolo[2,3-d]pyrimidin-4-yl)-1H-pyrazol-1-yl)-1-(ethylsulfonylimino)azetidine-3-yl)acetonitrile]
17 | > 100 nM | > 100 nM | – | CS(=O)(=O)N1CC(CC#N)(n2cc(-c3cc(NCC4CCOCC4)ncn3)c(N)n2)C1 [Example 76, 2-(3-(3-amino-4-(6-((tetrahydro-2H-pyran-4-yl)methyl)amino)pyrimidin-4-yl-1H-pyrazol-1-yl)-1-(methylsulfonyl)azetidine-3-yl)acetonitrile]
18 | > 100 nM | > 100 nM | – | CNc1cc(-c2cn(C3(CC#N)CN(S(C)(=O)=O)C3)nc2N)ncn1 [Example 77, 2-(3-(3-amino-4-(6-(methylamino)pyrimidin-4-yl)-1H-pyrazol-1-yl)-1-(methylsulfonyl)azetidine-3-yl)acetonitrile]
19 | > 100 nM | > 100 nM | – | CS(=O)(=O)N1CC(CC#N)(n2cc(-c3ccnc(NCCO)n3)c(N)n2)C1 [Example 78]
20 | > 100 nM | > 100 nM | – | CS(=O)(=O)N1CC(CC#N)(n2cc(-c3ccnc(NCc4ccccc4)n3)c(N)n2)C1 [Example 79, 2-(3-(3-amino-4-(2-(benzylamino)pyrimidin-4-yl)-1H-pyrazol-1-yl)-1-(methylsulfonyl)azetidine-3-yl)acetonitrile]
21 | > 100 nM | > 100 nM | – | CCS(=O)(=O)N1CC(CC#N)(n2cc(-c3cc(-c4cnn(C)c4)nn4ccnc34)c(N)n2)C1 [Example 80]
22 | > 100 nM | > 100 nM | – | CCS(=O)(=O)N1CC(CC#N)(n2cc(-c3cc(-c4cnn(C)c4)cn4ncnc34)c(N)n2)C1 [Example 81]
23 | > 100 nM | > 100 nM | – | CCS(=O)(=O)N1CC(CC#N)(n2cc(-c3cc(Cl)cn4ncnc34)c(N)n2)C1 [Example 83, 2-(3-(3-amino-4-(6-chloro-[1,2,4]triazolo[1,5-a]pyridin-8-yl)-1H-pyrazol-1-yl)-1-(ethylsulfonyl)azetidine-3-yl)acetonitrile]
24 | > 100 nM | > 100 nM | – | CCS(=O)(=O)N1CC(CC#N)(n2cc(-c3cc(Cl)nc4ccnn34)c(N)n2)C1 [Example 84, 2-(3-(3-amino-4-(5-chloropyrazolo[1,5-a]pyrimidin-7-yl)-1H-pyrazol-1-yl)-1-(ethylsulfonyl)azetidine-3-yl)acetonitrile]
25 | > 100 nM | > 100 nM | – | CCS(=O)(=O)N1CC(CC#N)(n2cc(-c3cc(NC)nc4ccnn34)c(N)n2)C1 [Example 85, 2-(3-(3-amino-4-(5-(methylamino)pyrazolo[1,5-a]pyrimidin-7-yl)-1H-pyrazol-1-yl)-1-(ethylsulfonyl)azetidine-3-yl)acetonitrile]
26 | < 5 nM | < 5 nM | – | CC(N)CS(=O)(=O)N1CC(CC#N)(n2cc(-c3ncnc4[nH]ccc34)c(N)n2)C1 (centres unmarked) [Example 86, 2-(3-(3-amino-4-(7H-pyrrolo[2,3-d]pyrimidin-4-yl)-1H-pyrazol-1-yl)-1-((2-aminopropyl)sulfonyl)azetidine-3-yl)acetonitrile]
